What all share (assay): cells
Assay [1] has as its system human breast adenocarcinoma (MCF-7). Format: cell-based. The settings on record: MCF-7, 72 h, SRB, mean ± SD. The text has this:
(§1) The BALB/3T3 cell line was purchased from the American Type Culture Collection (ATCC, Manassas, VA, USA), A549 and MCF-7 cell lines—from European Collection of Authenticated Cell Cultures (Salisbury, UK), LoVo cell line was purchased from the ATCC (ATCC, Manassas, VA, USA), and LoVo/DX by courtesy of Prof. E. Borowski (Technical University of Gdańsk, Gdańsk, Poland). All the cell lines are maintained in the Institute of Immunology and Experimental Therapy (IIET), Wroclaw, Poland. […] Human breast adenocarcinoma cell line was cultured in mixture of Eagle medium (IIET, Wroclaw, Poland), supplemented with 10% fetal bovine serum, 2 mM L-glutamine, 8 μg/mL insulin and 1% amino-acids (Sigma-Aldrich, Merck KGaA, Saint Louis, MO, USA). […] Murine embryonic fibroblast cells were cultured in Dulbecco medium (Life Technologies Limited, Paisley, UK), supplemented with 10% fetal bovine serum (GE Healthcare, Logan, UT, USA) and 2 mM glutamine (Sigma-Aldrich, Merck KGaA, Saint Louis, MO, USA). All culture media contained antibiotics: 100 U/mL penicillin and 100 μg/mL streptomycin (Polfa-Tarchomin, Warsaw, Poland). All cell lines were cultured during entire experiment in humid atmosphere at 37 °C and 5% CO2. […] The procedure is repeated every year or in the case of less frequently used lines: after thawing.
(§2) Twenty-four hours before adding the tested compounds, all cell lines were seeded in 96-well plates (Sarstedt, Nümbrecht, Germany) in appropriate media with 10^4 cells per well. All cell lines were exposed to each tested agent at four different concentrations in the range 100–0.01 μg/mL for 72 h. […] Additionally, all cell lines were exposed to DMSO (solvent used for tested compounds) (POCh, Gliwice, Poland) at concentrations corresponding to those present in tested agents’ dilutions. After 72 h sulforhodamine B assay (SRB) was performed.
(§3) After 72 h of incubation with the tested compounds, cells were fixed in situ by gently adding of 50 μL per well of cold 50% trichloroacetic acid TCA (POCh, Gliwice, Poland) and were incubated at 4 °C for one hour. Following, wells were washed four times with water and air dried. Next, 50 μL of 0.1% solution of sulforhodamine B (Sigma-Aldrich, Merck KGaA, Saint Louis, MO, USA) in 1% acetic acid (POCh, Gliwice, Poland) were added to each well and plates were incubated at room temperature for 0.5 h. After incubation time, unbound dye was removed by washing plates four times with 1% acetic acid whereas stain bound to cells was solubilized with 10 mM Tris base (Sigma-Aldrich, Steinheim, Germany). Absorbance of each solution was read at Synergy H4 Hybrid Multi-Mode Microplate Reader (BioTek Instruments, Inc., Winooski, VT, USA) at the 540 nm wavelength.
(§4) Compounds at each concentration were tested in triplicates in single experiment and each experiment was repeated at least three times independently. The Resistance Index (RI) was defined as the ratio of IC50 for a given compound calculated for resistant cell line to that measured for its parental drug sensitive cell line (Table 1).

Assay [2] concerns human colon adenocarcinoma cell line (LoVo). Format: cell-based. The settings on record: 72 h, SRB, mean ± SD.
From the text: as §1, §2, §3, §4

Assay [3] relates to human lung adenocarcinoma (A549). Format: cell-based. The settings on record: A549, 72 h, SRB, mean ± SD.
From the text: as §1, §2, §3, §4

The subject of assay [4] is normal murine embryonic fibroblast cell line (BALB/3T3). It counts as cell-based. The settings on record: normal murine fibroblasts BALB/3T3, 72 h, SRB, mean ± SD.
From the text: as §1, §2, §3, §4

Assay [5] concerns doxorubicin-resistant subline (LoVo/DX). Format: cell-based, human. To be noted: 72 h, SRB, mean ± SD.
From the text: as §1, §2, §3, §4

Structures are written as SMILES.

Broadly, the IC50 is the concentration at which inhibition is half-maximal.

Regarding `N.N.[Cl][Pt][Cl]` [Cisplatin, reference compound], the IC50 in assay [1] is 10700 ± 753 nM; in assay [2], 4370 ± 730 nM; in assay [3] it was 6370 ± 1410 nM; in assay [4], 3900 ± 1500 nM; in assay [5], 5700 ± 630 nM.

With `COc1c(Cl)c2c(c(OC)c1OC)-c1ccc(OC)c(=O)cc1[C@@H](NC(C)=O)CC2` [Compound 3, 4-chlorocolchicine], the IC50 in assay [1] (Homo sapiens, MCF7) is 23 ± 5 nM; in assay [2] (Homo sapiens) it was 69 ± 12 nM; in assay [3] (Homo sapiens) it was 46 ± 35 nM; in assay [4] (Mus musculus), 138 ± 69 nM; in assay [5] (Homo sapiens), 784 ± 280 nM.

As for `COc1c(Cl)c2c(c(OC)c1OC)-c1ccc(SC)c(=O)cc1[C@@H](NC(C)=O)CC2` [Compound 4], the IC50 was determined as 22 ± 2 nM in assay [1] (Homo sapiens, MCF7); 22 ± 2 nM in assay [2] (Homo sapiens); 22 ± 2 nM in assay [3] (Homo sapiens); 22 ± 2 nM in assay [4] (Mus musculus); 111 ± 44 nM in assay [5] (Homo sapiens).

Regarding `COc1c(Br)c2c(c(OC)c1OC)-c1ccc(OC)c(=O)cc1[C@@H](NC(C)=O)CC2` [Compound 5, 4-bromocolchicine], the 50% inhibitory concentration (IC50) amounted to 27 ± 8 nM in assay [1] (Homo sapiens, MCF7); 84 ± 21 nM in assay [2] (Homo sapiens); 105 ± 8 nM in assay [3] (Homo sapiens); 142 ± 73 nM in assay [4] (Mus musculus); 1550 ± 170 nM in assay [5] (Homo sapiens).

For `COc1c(Br)c2c(c(OC)c1OC)-c1ccc(SC)c(=O)cc1[C@@H](NC(C)=O)CC2` [Compound 6, 4-bromothiocolchine], the IC50 in assay [1] (Homo sapiens, MCF7) was determined as 15 ± 2 nM; in assay [2] (Homo sapiens) it was 14 ± 4 nM; in assay [3] (Homo sapiens), 10 ± 0.1 nM; in assay [4] (Mus musculus) it was 103 ± 89 nM; in assay [5] (Homo sapiens) it was 135 ± 12 nM.

Consider `COc1c(I)c2c(c(OC)c1OC)-c1ccc(OC)c(=O)cc1[C@@H](NC(C)=O)CC2` [Compound 7, 4-iodocolchicine], for which the IC50 in assay [1] (Homo sapiens, MCF7) was 98 ± 29 nM; in assay [2] (Homo sapiens), 10 ± 2 nM; in assay [3] (Homo sapiens), 94 ± 6 nM; in assay [4] (Mus musculus), 135 ± 56 nM; in assay [5] (Homo sapiens) it was 2780 ± 450 nM.

As for `COc1c(I)c2c(c(OC)c1OC)-c1ccc(SC)c(=O)cc1[C@@H](NC(C)=O)CC2` [Compound 8, 4-iodothiocolchicine], the IC50 in assay [1] (Homo sapiens, MCF7) stood at 17 ± 6 nM; in assay [2] (Homo sapiens), 7 ± 2 nM; in assay [3] (Homo sapiens), 11 ± 2 nM; in assay [4] (Mus musculus), 115 ± 44 nM; in assay [5] (Homo sapiens), 642 ± 84 nM.

Consider `COc1cccc2c1C(=O)c1c(O)c3c(c(O)c1C2=O)C[C@@](O)(C(=O)CO)C[C@@H]3O[C@H]1C[C@H](N)[C@H](O)[C@H](C)O1` [Doxorubicin, reference compound], for which the figures for the IC50 in assay [3] (Homo sapiens), in assay [4] (Mus musculus) and in assay [5] (Homo sapiens) were 258 ± 44 nM, 166 ± 74 nM and 4750 ± 990 nM, respectively.
